Experimental data from patent publication US9084766B2, “Compounds and compositions for targeting cancer stem cells” (Boston Biomedical, Inc., priority 2010, dated 2015).
Where “and” joins values, the source holds several entries; their conditions need not be identical. Identical values can stand only once. Entries after “also recorded” stand apart in the source; their conditions may differ.

Tests used:
DU145 = assay: IC50 versus treatment time, DU145; format: cell-based; details: DU145 cancer cells
Procedure: (§1) The studies described herein discovered counter-intuitively that cancer cells and cancer stem cells requires much shorter exposure than normal cells to be killed by Compound 1. Normal cells can tolerate up to 24 hours of exposure to Compound 1. Furthermore, the studies here discovered that normal cells can recover after a short period of no-drug exposure, while cancer cells cannot recover once they are exposed to a certain concentration of the Compound 1 for at least 2 hours. Based on these studies, a special pharmacokinetic exposure [termed selective pharmacokinetic profile (SPP), or preferred pharmacokinetic profile (PPP), which is used interchangeably in this publication] was designed for Compound 1 using the data shown below in Table 14 for achieving selective antitumor activity in patients (FIG. 24).

HT29 = assay: IC50 versus treatment time, HT29; format: cell-based; details: HT29 cancer cells
Procedure: as §1

advanced solid tumors = assay: Phase I clinical trial: tumor response (RECIST 1.1) and progression free survival; format: in vivo, human
From the text: As of Feb. 7, 2011, 42 cancer patients with various advanced solid tumors who have failed chemotherapies were enrolled in the study.
Of the 42 patients dosed, 24 were evaluable for tumor response as of Feb. 7, 2011; 16 (16/24 evaluable patients) achieved stable disease (8 to 75+ weeks).

[1] = Phase I clinical trial: safety and adverse events
Procedure: A cycle consists of twice-daily oral administration of the compound for 4 weeks. Cycles were repeated every 4 weeks (28 days) until progression of disease, unacceptable toxicity, or another discontinuation criterion is met. The dose escalation trial was conducted as open label and multicenter trial. A modified Simon accelerated titration scheme was used for dose escalation.
The primary objective of the trial was to determine the safety, tolerability, and recommended phase II dose (RP2D). The secondary objectives of the trial were to determine the pharmacokinetic profile of the compound, pharmacodynamics of the compound, and preliminary antitumor activity of the compound.
The inclusion criteria included histologically or cytologically confirmed solid tumor that is metastatic, unresectable, or recurrent; ≧18 years of age; Measurable disease by RECIST; and Karnofsky≧70%. The exclusion criteria included chemotherapy, radiotherapy, immunotherapy or investigational agent within 4 weeks of first dose; surgery within 4 weeks of first dose; and known brain metastases.

[2] = patient 0001, total daily dose 20 mg qd, Colon adenocarcinoma
[3] = patient 0013, total daily dose 400 mg bid, Gastric adenocarcinoma
[4] = patient 0014, total daily dose 400 mg bid, Ovarian cancer
[5] = patient 0015, total daily dose 400 mg bid, Colon adenocarcinoma
[6] = patient 0020, total daily dose 600 mg bid, Breast Cancer
[7] = Phase I patients, 20-2000 mg/day oral
[8] = Phase I, dose escalated from 20 mg to 2000 mg/day

SMILES: CC(=O)c1cc2c(o1)C(=O)c1ccccc1C2=O [Compound 1, 2-acetyl-4H,9H-naphtho[2,3-b]furan-4,9-dione]
- IC50 (DU145; treatment time 12-24 h): < 0.2 µM
- IC50 (DU145; Homo sapiens, DU-145, treatment time 4-12 h): < 0.2 µM
- IC50 (HT29; treatment time 12-24 h): < 0.5 µM
- IC50 (HT29; Homo sapiens, HT-29, treatment time 4-12 h): < 0.5 µM
- patients showing prolonged SD (>12 weeks) (advanced solid tumors; RECIST 1.1): 12 patients
- evaluable patients with SD/MR by RECIST (advanced solid tumors; as of Feb. 7, 2011): 16/24 and 16 out of 24
- progression free survival (advanced solid tumors; blood drug concentration above 1 uM, diverse cancers (FIG. 23)): increase in progression free survival
- patients in whom new metastatic lesions were prevented (advanced solid tumors; of patients dosed): 83%
- patients showing no metastatic tumors (advanced solid tumors; out of 24 evaluable patients with advanced refractory cancers): over 80%
- response of colon cancer metastatic lesion to kidney (advanced solid tumors; patient 0001, 20 mg daily (FIG. 19)): complete regression; also recorded: signs of potent antitumor activity
- New Lesions (advanced solid tumors; [2]): 1
- regression (advanced solid tumors; [2]): (regression 27.6%)
- New Lesions (advanced solid tumors; patient 0002, total daily dose 40 mg qd, Gastric adenocarcinoma): 3
- New Lesions (advanced solid tumors; patient 0003, total daily dose 80 mg qd, Head and Neck carcinoma): 0
- New Lesions (advanced solid tumors; patient 0004, total daily dose 80 mg bid, Colon adenocarcinoma): 0
- New Lesions (advanced solid tumors; patient 0006, total daily dose 160 mg bid, Lung adenocarcinoma): 0
- New Lesions (advanced solid tumors; patient 0008, total daily dose 320 mg bid, Colon adenocarcinoma): 2
- New Lesions (advanced solid tumors; patient 0010, total daily dose 320 mg bid, Colon adenocarcinoma): 0
- New Lesions (advanced solid tumors; patient 0011, total daily dose 320 mg bid, Angiosarcoma): 0
- New Lesions (advanced solid tumors; patient 0012, total daily dose 320 mg bid, Prostate cancer): 0
- Best Response, remark (advanced solid tumors; [3]): (signs of regression)
- New Lesions (advanced solid tumors; [3]): 0
- Best Response, remark (advanced solid tumors; [4]): (CA 125 normalization)
- New Lesions (advanced solid tumors; [4]): 0
- CEA change (Best Response, remark) (advanced solid tumors; [5]): (CEA? >30-50%)
- New Lesions (advanced solid tumors; [5]): 0
- New Lesions (advanced solid tumors; patient 0016, total daily dose 600 mg bid, Pancreatic adenocarcinoma): 0
- Best Response, remark (advanced solid tumors; [6]): (hollow tumor)
- New Lesions (advanced solid tumors; [6]): 0
- New Lesions (advanced solid tumors; patient 0021, total daily dose 800 mg bid, Chondrosarcoma): 0
- New Lesions (advanced solid tumors; patient 0022, total daily dose 800 mg bid, Prostate cancer): 0
- New Lesions (advanced solid tumors; patient 0023, total daily dose 800 mg bid, Adenocorticoid): 0
- New Lesions (advanced solid tumors; patient 0024, total daily dose 1000 mg bid, Rectal cancer): 0
- New Lesions (advanced solid tumors; patient 0027, total daily dose 1400 mg bid, Colon adenocarcinoma): 2
- New Lesions (advanced solid tumors; patient 0032, total daily dose 200 mg tid, Colon adenocarcinoma): 0
- New Lesions (advanced solid tumors; patient 0037, total daily dose 500 mg tid, Colon adenocarcinoma): 0
- progression free survival (advanced solid tumors; patients with exposure above 1.6 uM for at least 4 hours): improvement in progression free survival
- tolerability in humans ([1]; 20 mg QD): good tolerability
- tolerability in humans ([1]; 500 mg TID): good tolerability
- Anorexia, Any Grade, # of Events [1, 7]: 4
- Anorexia, Any Grade, % of Total [1, 7]: 4.9%
- Anorexia, Grade 1, # of Events [1, 7]: 3
- Anorexia, Grade 1, % of Total [1, 7]: 3.7%
- Anorexia, Grade 2, # of Events [1, 7]: 1
- Anorexia, Grade 2, % of Total [1, 7]: 1.2%
- Anorexia, Grade 3, # of Events [1, 7]: 0
- Anorexia, Grade 3, % of Total [1, 7]: 0.0%
- Diarrhea, Any Grade, # of Events [1, 7]: 23
- Diarrhea, Any Grade, % of Total [1, 7]: 28.4%
- Diarrhea, Grade 1, # of Events [1, 7]: 20
- Diarrhea, Grade 1, % of Total [1, 7]: 24.7%
- Diarrhea, Grade 2, # of Events [1, 7]: 2
- Diarrhea, Grade 2, % of Total [1, 7]: 2.5%
- Diarrhea, Grade 3, # of Events [1, 7]: 2
- Diarrhea, Grade 3, % of Total [1, 7]: 2.5%
- Dysgusia, Any Grade, # of Events [1, 7]: 3
- Dysgusia, Any Grade, % of Total [1, 7]: 3.7%
- Dysgusia, Grade 1, # of Events [1, 7]: 3
- Dysgusia, Grade 1, % of Total [1, 7]: 3.7%
- Dysgusia, Grade 2, # of Events [1, 7]: 0
- Dysgusia, Grade 2, % of Total [1, 7]: 0.0%
- Dysgusia, Grade 3, # of Events [1, 7]: 0
- Dysgusia, Grade 3, % of Total [1, 7]: 0.0%
- Fatigue, Any Grade, # of Events [1, 7]: 4
- Fatigue, Any Grade, % of Total [1, 7]: 4.9%
- Fatigue, Grade 1, # of Events [1, 7]: 1
- Fatigue, Grade 1, % of Total [1, 7]: 1.2%
- Fatigue, Grade 2, # of Events [1, 7]: 2
- Fatigue, Grade 2, % of Total [1, 7]: 2.5%
- Fatigue, Grade 3, # of Events [1, 7]: 1
- Fatigue, Grade 3, % of Total [1, 7]: 1.2%
- Fever, Any Grade, # of Events [1, 7]: 2
- Fever, Any Grade, % of Total [1, 7]: 2.5%
- Fever, Grade 1, # of Events [1, 7]: 1
- Fever, Grade 1, % of Total [1, 7]: 1.2%
- Fever, Grade 2, # of Events [1, 7]: 1
- Fever, Grade 2, % of Total [1, 7]: 1.2%
- Fever, Grade 3, # of Events [1, 7]: 0
- Fever, Grade 3, % of Total [1, 7]: 0.0%
- Loose stools, Any Grade, # of Events [1, 7]: 2
- Loose stools, Any Grade, % of Total [1, 7]: 2.5%
- Loose stools, Grade 1, # of Events [1, 7]: 2
- Loose stools, Grade 1, % of Total [1, 7]: 2.5%
- Loose stools, Grade 2, # of Events [1, 7]: 0
- Loose stools, Grade 2, % of Total [1, 7]: 0.0%
- Loose stools, Grade 3, # of Events [1, 7]: 0
- Loose stools, Grade 3, % of Total [1, 7]: 0.0%
- Nausea, Any Grade, # of Events [1, 7]: 10
- Nausea, Any Grade, % of Total [1, 7]: 12.3%
- Nausea, Grade 1, # of Events [1, 7]: 8
- Nausea, Grade 1, % of Total [1, 7]: 9.9%
- Nausea, Grade 2, # of Events [1, 7]: 2
- Nausea, Grade 2, % of Total [1, 7]: 2.5%
- Nausea, Grade 3, # of Events [1, 7]: 0
- Nausea, Grade 3, % of Total [1, 7]: 0.0%
- Skin Rash, Any Grade, # of Events [1, 7]: 2
- Skin Rash, Any Grade, % of Total [1, 7]: 2.5%
- Skin Rash, Grade 1, # of Events [1, 7]: 2
- Skin Rash, Grade 1, % of Total [1, 7]: 2.5%
- Skin Rash, Grade 2, # of Events [1, 7]: 0
- Skin Rash, Grade 2, % of Total [1, 7]: 0.0%
- Skin Rash, Grade 3, # of Events [1, 7]: 0
- Skin Rash, Grade 3, % of Total [1, 7]: 0.0%
- Urine Color Change, Any Grade, # of Events [1, 7]: 2
- Urine Color Change, Any Grade, % of Total [1, 7]: 2.5%
- Urine Color Change, Grade 1, # of Events [1, 7]: 2
- Urine Color Change, Grade 1, % of Total [1, 7]: 2.5%
- Urine Color Change, Grade 2, # of Events [1, 7]: 0
- Urine Color Change, Grade 2, % of Total [1, 7]: 0.0%
- Urine Color Change, Grade 3, # of Events [1, 7]: 0
- Urine Color Change, Grade 3, % of Total [1, 7]: 0.0%
- Vomiting, Any Grade, # of Events [1, 7]: 14
- Vomiting, Any Grade, % of Total [1, 7]: 17.3%
- Vomiting, Grade 1, # of Events [1, 7]: 13
- Vomiting, Grade 1, % of Total [1, 7]: 16.0%
- Vomiting, Grade 2, # of Events [1, 7]: 1
- Vomiting, Grade 2, % of Total [1, 7]: 1.2%
- Vomiting, Grade 3, # of Events [1, 7]: 0
- Vomiting, Grade 3, % of Total [1, 7]: 0.0%
- abdominal cramps, Any Grade, # of Events [1, 7]: 6
- abdominal cramps, Any Grade, % of Total [1, 7]: 7.4%
- abdominal cramps, Grade 1, # of Events [1, 7]: 5
- abdominal cramps, Grade 1, % of Total [1, 7]: 6.2%
- abdominal cramps, Grade 2, # of Events [1, 7]: 1
- abdominal cramps, Grade 2, % of Total [1, 7]: 1.2%
- abdominal cramps, Grade 3, # of Events [1, 7]: 0
- abdominal cramps, Grade 3, % of Total [1, 7]: 0.0%
- decreased appetite, Any Grade, # of Events [1, 7]: 2
- decreased appetite, Any Grade, % of Total [1, 7]: 2.5%
- decreased appetite, Grade 1, # of Events [1, 7]: 1
- decreased appetite, Grade 1, % of Total [1, 7]: 1.2%
- decreased appetite, Grade 2, # of Events [1, 7]: 1
- decreased appetite, Grade 2, % of Total [1, 7]: 1.2%
- decreased appetite, Grade 3, # of Events [1, 7]: 0
- decreased appetite, Grade 3, % of Total [1, 7]: 0.0%
- dizzyness, Any Grade, # of Events [1, 7]: 2
- dizzyness, Any Grade, % of Total [1, 7]: 2.5%
- dizzyness, Grade 1, # of Events [1, 7]: 2
- dizzyness, Grade 1, % of Total [1, 7]: 2.5%
- dizzyness, Grade 2, # of Events [1, 7]: 0
- dizzyness, Grade 2, % of Total [1, 7]: 0.0%
- dizzyness, Grade 3, # of Events [1, 7]: 0
- dizzyness, Grade 3, % of Total [1, 7]: 0.0%
- weakness, Any Grade, # of Events [1, 7]: 5
- weakness, Any Grade, % of Total [1, 7]: 6.2%
- weakness, Grade 1, # of Events [1, 7]: 2
- weakness, Grade 1, % of Total [1, 7]: 2.5%
- weakness, Grade 2, # of Events [1, 7]: 3
- weakness, Grade 2, % of Total [1, 7]: 3.7%
- weakness, Grade 3, # of Events [1, 7]: 0
- weakness, Grade 3, % of Total [1, 7]: 0.0%
- tolerability of dose escalation in patients ([1]; Phase I, 20 mg to 2000 mg/day): without drug-induced adverse effects; also recorded: well tolerated
- dose-limiting toxicity [1, 8]: No dose-limiting toxicity was observed; also recorded: No dose limiting toxicity was observed
- maximum tolerated dose (MTD) [1, 8]: not reached; also recorded: neither MTD nor RP2D has been reached
